Assay results published in patent US20250340519A1, “RADIOLABELLED COMPOUND” (OXFORD UNIVERSITY INNOVATION LIMITED, priority 2018, published 2025).
“And” between values parts separate entries of the source, which are not always exact repeats. Equal values may be shown once.

Assays:
[1] = Ex vivo biodistribution in naïve CBA/Carl mice; details: 1 h p.i., individual animals
Procedure: (§1) Dynamic PET/CT images were acquired following an intravenous bolus administration of [^18F]-olaparib. Biodistribution studies, where selected tissues were harvested, were performed 1 h post injection. Some animals were also administered an excess of cold, unlabelled olaparib for evaluating the specificity of tumour uptake. EF5, a hypoxia-selective marker, was injected 2 h before culling of the animal. Digital autoradiography was performed on tumour sections. Image analysis was performed using PMOD.
(§2) Dynamic PET/CT images were acquired using a VECTor ^4CT integrated PET/CT system. Mice were anaesthetised by 4% isoflurane gas (0.5 L/min O2) and placed on a custom-built imaging cradle in a prone position. Animals mice were intravenously injected with [^18F]-olaparib or (3-5 MBq, 8-11 GBq/μmol, through a tail vein catheter, and dynamic imaging was performed over 45-60 min after radiolabelled compound administration. PET acquisition (150 s per frame, using list mode acquisition) using an ultra-high resolution rat/mouse 1.8 mm collimator, followed by a cone-beam CT scan (55 kV, 0.19 mA) for anatomical reference and attenuation correction. Anaesthesia was maintained at 2.5% isoflurane throughout the duration of the image acquisition. PET images were reconstructed using U-SPECT-Rec3.22 software (MILabs, Utrecht, The Netherlands), applying a pixel-based algorithm with 8 subsets, 6 iterations and 0.8 mm voxel size for ^18F (energy window settings 477.9-584.1 keV).
(§3) After PET/CT image acquisition, animals were euthanized by cervical dislocation and selected organs, tissues and blood were removed. The amount of radioactivity in each organ was measured using a 2480 WIZARD^2 gamma counter (PerkinElmer). Counts per minute were converted into MBq using a calibration curve generated from known standards. Values were decay-corrected to the time of injection, and the percentage of the injected dose per gram (% ID/g) of each tissue was calculated.

[2] = tested on: Capan-1 xenograft; assay: Ex vivo biodistribution in Capan-1 xenograft bearing mice; details: for Ex vivo biodistribution Bone / Ex vivo biodistribution Kidney / Ex vivo biodistribution Large intestine / Ex vivo biodistribution Liver / Ex vivo biodistribution Muscle / Ex vivo biodistribution Pancreas / Ex vivo biodistribution Skin / Ex vivo biodistribution Small intestine / Ex vivo biodistribution Spleen / Ex vivo biodistribution Stomach: Capan-1 xenograft mice, 1 h p.i., individual animals; for tumour uptake (group mean): Capan-1 xenografts
Procedure: All animal procedures were performed in accordance with the UK Animals (Scientific Procedures) Act 1986 and with local ethical committee approval. Animals were housed in IVC cages in sex-matched groups up to 5 per cage, in an artificial day-night cycle facility, with ad libitum access to food and water. Tumour xenografts or allografts were generated by subcutaneous injection of PANC-1 or Capan-1 cell suspensions in the hind flank of balb/c nu/nu animals. CaNT xenografts were generated by harvesting CaNT tumours from donor animals, and injecting a tumour homogenate subcutaneously in the flank of wild type CBA/Carl mice. Tumours were irradiated (10 Gy, 2 Gy/min) using a 300 kV X-ray device.
as §1
Cells were harvested using trypsin, washed twice using PBS, and reconstituted in DMEM. Panc-1 or Capan-1 xenograft tumours were established in the right hind flank of female NOD/SCID mice (Charles River, UK) by subcutaneous injection of 1×10^6 cells in PBS:matrigel (150 μL). Tumour volumes (V) were calculated after calliper measurement using the following equation: V=(a^2×b)/2, where a is the width of the tumour and b the length (small and large diameters, respectively). The individual relative tumour volume (RTV) was defined as Vt/Vo, where Vt is the volume at a given time and Vo at the start of treatment. Animals were entered in in vivo studies when their tumour was at least 200 mm^3.
Two hours prior to PET/CT imaging, animals were exposed to X-irradiation of the tumour (10 Gy or sham) (see schedule in FIG. 13). Radiation was delivered using a Gulmay 320 kV X-irradiator; 2.0 Gy/min. Anaesthesia was maintained at 2.5% isoflurane throughout the duration of the irradiation, and animals were allowed to recover. To study the relationship of PARP1 expression, ^18F-olaparib uptake and hypoxia, animals were administered 0.6 μg in 200 μL (0.9% saline) intraperitoneally, one hour prior to PET/CT imaging. Naïve CBA/Carl mice, not bearing tumours, were not irradiated, nor was EF5 administered.
as §2, §3

Ex vivo biodistribution Blood [1]: 0.11 % ID/g (2×) and 0.14 % ID/g | Ex vivo biodistribution Skin ([2]; + block (excess cold olaparib)): 1.16 % ID/g | tumour uptake (group mean) ([2]; excess cold olaparib): 1.00±0.17 | tumour uptake (group mean) ([2]; tracer alone): 2.59±0.32 % ID/g
SMILES: O=C(c1cc(Cc2n[nH]c(=O)c3ccccc23)ccc1[18F])N1CCN(C(=O)C2CC2)CC1 [[^18F]olaparib]
Ex vivo biodistribution Fat [1]: 0.05 % ID/g and 0.03 % ID/g and 0.26 % ID/g | Ex vivo biodistribution Heart [1]: 0.19 % ID/g and 0.17 % ID/g and 0.34 % ID/g | Ex vivo biodistribution Kidney [1]: 0.59 % ID/g and 0.60 % ID/g and 1.01 % ID/g | Ex vivo biodistribution Large intestine [1]: 0.92 % ID/g and 1.64 % ID/g and 2.99 % ID/g | Ex vivo biodistribution Liver [1]: 2.55 % ID/g and 4.02 % ID/g and 5.27 % ID/g | Ex vivo biodistribution Lung [1]: 0.29 % ID/g and 0.19 % ID/g and 0.34 % ID/g | Ex vivo biodistribution Muscle [1]: 0.20 % ID/g and 0.14 % ID/g and 0.34 % ID/g | Ex vivo biodistribution Pancreas [1]: 0.91 % ID/g and 0.70 % ID/g and 1.30 % ID/g | Ex vivo biodistribution Skin [1]: 0.16 % ID/g and 0.10 % ID/g and 0.27 % ID/g | Ex vivo biodistribution Small intestine [1]: 7.75 % ID/g and 10.33 % ID/g and 17.40 % ID/g | Ex vivo biodistribution Spleen [1]: 2.09 % ID/g and 1.91 % ID/g and 3.68 % ID/g | Ex vivo biodistribution Stomach [1]: 0.46 % ID/g and 0.26 % ID/g and 0.58 % ID/g | Ex vivo biodistribution Bone ([2]; + IR (10 Gy)): 0.31 % ID/g and 0.16 % ID/g and 0.19 % ID/g | Ex vivo biodistribution Kidney ([2]; + IR (10 Gy)): 4.66 % ID/g and 1.03 % ID/g and 3.67 % ID/g | Ex vivo biodistribution Large intestine ([2]; + IR (10 Gy)): 5.21 % ID/g and 3.30 % ID/g and 5.86 % ID/g | Ex vivo biodistribution Liver ([2]; + IR (10 Gy)): 9.16 % ID/g and 5.93 % ID/g and 6.67 % ID/g | Ex vivo biodistribution Muscle ([2]; + IR (10 Gy)): 0.63 % ID/g and 0.29 % ID/g and 0.48 % ID/g | Ex vivo biodistribution Pancreas ([2]; + IR (10 Gy)): 1.89 % ID/g and 1.59 % ID/g and 1.84 % ID/g | Ex vivo biodistribution Skin ([2]; + IR (10 Gy)): 0.67 % ID/g and 0.23 % ID/g and 0.33 % ID/g | Ex vivo biodistribution Small intestine ([2]; + IR (10 Gy)): 15.58 % ID/g and 9.80 % ID/g and 19.97 % ID/g | Ex vivo biodistribution Spleen ([2]; + IR (10 Gy)): 0.77 % ID/g and 0.73 % ID/g and 0.82 % ID/g | Ex vivo biodistribution Stomach ([2]; + IR (10 Gy)): 0.38 % ID/g and 0.36 % ID/g and 0.64 % ID/g | Ex vivo biodistribution Bone ([2]; + block (excess cold olaparib)): 2.17 % ID/g and 0.47 % ID/g and 1.27 % ID/g | Ex vivo biodistribution Kidney ([2]; + block (excess cold olaparib)): 4.16 % ID/g and 1.26 % ID/g and 3.32 % ID/g | Ex vivo biodistribution Large intestine ([2]; + block (excess cold olaparib)): 5.00 % ID/g and 2.91 % ID/g and 4.06 % ID/g | Ex vivo biodistribution Liver ([2]; + block (excess cold olaparib)): 9.79 % ID/g and 3.62 % ID/g and 6.88 % ID/g | Ex vivo biodistribution Muscle ([2]; + block (excess cold olaparib)): 0.88 % ID/g and 0.28 % ID/g and 0.65 % ID/g | Ex vivo biodistribution Pancreas ([2]; + block (excess cold olaparib)): 10.22 % ID/g and 4.56 % ID/g and 10.82 % ID/g | Ex vivo biodistribution Small intestine ([2]; + block (excess cold olaparib)): 46.04 % ID/g and 0.45 % ID/g and 11.70 % ID/g | Ex vivo biodistribution Spleen ([2]; + block (excess cold olaparib)): 6.43 % ID/g and 2.80 % ID/g and 7.93 % ID/g | Ex vivo biodistribution Stomach ([2]; + block (excess cold olaparib)): 0.94 % ID/g and 0.30 % ID/g and 0.49 % ID/g | Ex vivo biodistribution Bone ([2]; tracer alone): 1.46 % ID/g and 0.98 % ID/g and 1.26 % ID/g and 3.08 % ID/g | Ex vivo biodistribution Kidney ([2]; tracer alone): 4.32 % ID/g and 2.05 % ID/g and 4.91 % ID/g and 5.22 % ID/g | Ex vivo biodistribution Large intestine ([2]; tracer alone): 4.99 % ID/g and 4.50 % ID/g and 4.14 % ID/g and 8.14 % ID/g | Ex vivo biodistribution Liver ([2]; tracer alone): 11.78 % ID/g and 5.79 % ID/g and 10.32 % ID/g and 22.63 % ID/g | Ex vivo biodistribution Muscle ([2]; tracer alone): 0.65 % ID/g and 0.45 % ID/g and 0.63 % ID/g and 1.44 % ID/g | Ex vivo biodistribution Pancreas ([2]; tracer alone): 9.32 % ID/g and 8.12 % ID/g and 7.87 % ID/g and 13.16 % ID/g | Ex vivo biodistribution Skin ([2]; tracer alone): 0.02 % ID/g and 0.55 % ID/g and 0.77 % ID/g and 1.54 % ID/g | Ex vivo biodistribution Small intestine ([2]; tracer alone): 12.27 % ID/g and 17.29 % ID/g and 11.58 % ID/g and 13.70 % ID/g | Ex vivo biodistribution Spleen ([2]; tracer alone): 9.84 % ID/g and 6.13 % ID/g and 8.40 % ID/g and 15.10 % ID/g | Ex vivo biodistribution Stomach ([2]; tracer alone): 1.55 % ID/g and 0.63 % ID/g and 1.14 % ID/g and 3.42 % ID/g
